From article PMC4610302 (Journal of Medicinal Chemistry, 2015) come the findings set out here.

Assay [1] relates to OTUB2 gene in cells with only ERα. Conditions: MCF-7 cells with only ERα, qPCR, 24 h.
Assay [2] has as its target purified full-length human ERβ (Homo sapiens, UniProt Q92731). As to the kind of experiment: biochemical.
Assay [3] deals with hERβ (Homo sapiens, UniProt Q92731). Conditions: HEC-1 reporter assay. On the technique in general: A reporter such as luciferase makes a cellular process visible.

The term Ki denotes the dissociation constant of the complex between target and ligand, obtained from inhibition or displacement. High values mean a looser hold on the target, low ones a stronger hold on the target. `C/C(=N\O)c1cc(-c2ccc(O)cc2)ccc1O` [2a, (E)-1-(6-Hydroxy-3-(4-hydroxyphenyl)phenyl)ethanone Oxime]: the “Stimulation of OTUB2 in cells with only ERα” value in assay [1] is “no stimulation”. The affinity in assay [2], expressed as Ki, was 1.1 nM.

As for `C/C(=N\O)c1cc(-c2ccc(O)c(F)c2)ccc1O` [2c, (E)-1-(6-Hydroxy-3-(3-fluoro-4-hydroxyphenyl)phenyl)ethanone Oxime], the “Reduction in potency on ERβ compared to 2a” value in assay [3] is around 4 fold. For the same compound, the “Stimulation of OTUB2 in cells with only ERα” value in assay [1] is “no stimulation”.
